Results reported in US20250163009A1, “BENZOTHIA(DIA)ZEPINE COMPOUNDS FOR TREATMENT OF HBV AND HDV” (Assembly Biosciences, Inc., priority 2022, published 2025).

Test system: HBV
Assay: HepG2-NTCP infection protocol, HBeAg quantification by ECL-ELISA
Format: cell-based
Details: Hepatitis B virus, HepG2-NTCP cells infected with HBV at MOI 50; compound 24 hours, then 72 hours; HBeAg in supernatant
Method: HepG2 cells expressing the sodium taurocholate cotransporting polypeptide (HepG2-NTCP) were maintained in culture using HepG2-NTCP growth medium (DMEM (HyClone, Cat #SH30243.02) supplemented with 10% FBS, 150 μg/mL G418 (Alfa Aesar, Cat #J62671), 50 U/mL penicillin-streptomycin (Invitrogen, Cat #15140-122), and 0.5 μg/mL blasticidin (Sigma, Cat #15205)). Prior to infection, the cells were washed twice with 1×DPBS (Invitrogen, Cat #14190-136) and treated with 3 mL of 0.05% trypsin (Invitrogen, Cat #25200-056) to dissociate the cells. Following dissociation, 10 mL of HepG2-NTCP growth medium was added to the cells to neutralize the trypsin and the cells were then centrifuged at 1,300 rpm for 5 minutes. Following centrifugation, the cells were resuspended in 10 mL of HepG2-NTCP growth medium, counted, and then centrifuged at 1,300 rpm for 5 minutes. The cell pellet was resuspended in DMEM supplemented with 5% FBS, 50 U/mL penicillin-streptomycin, 4% PEG-8000 (Hamilton Research, Cat #HR2-515), and 1% DMSO (Sigma, Cat #D4540) to a density of 5.6×10^5 cells/mL and infected with HBV at an MOI of 50. Immediately after infection, 90 μL of the cell/HBV mixture was added to a 96-well plate containing 10 μL of compound and incubated at 37° C. for 24 hours (2% final DMSO concentration). After the incubation, the infection media was removed and replaced with DMEM supplemented with 5% FBS, 50 U/mL penicillin-streptomycin, and 1% DMSO and incubated for an additional 72 hours. At the end of the incubation, the plates were spun at 1,800 rpm for 8 minutes and the supernatant was removed for HBeAg quantification using electrochemiluminescence enzyme-linked immunosorbent assays (ECL-ELISA).
To conduct the HBeAg ECL-ELISA, Lumitrack high-binding 96-well plates (Greiner, Cat #655074) were treated with 625 ng/mL HBeAg mAb (Biocheck, Cat #70426) in 1×DPBS for 2 hours at 25° C. with shaking. The HBeAg mAb solution was then removed and the plates treated with 1×DPBS containing 0.5% bovine serum albumin (BSA) (Sigma, Cat #A7030-100 g) for 2 hours at 25° C. with shaking. The HBeAg-coated plates were then washed 4 times with 1×DPBS containing 0.05% Tween 20 (DPBS-T) (Thermo Fisher Scientific, Cat #J61544-K2). Following the wash, 90 μL of HRP-conjugated antibody (Fitzgerald, Cat #61-H10K), diluted 1:8,000 in 1×DPBS-T containing 0.5% BSA, was added to the HBeAg-coated plates along with 10 μL of sample. The plates were then incubated for 2 hours at 25° C. with shaking. Following the incubation, the sample was then removed and 200 μL of 1×PBS-T was added and the plates were incubated for 10 minutes at 25° C. with shaking. The plates were then washed 6 times with 1×PBS-T and blotted dry. 80 μL of ECL substrate (Millipore, Cat #WBKLS0500) was then added to the plate and the luminescence was measured using a Tecan M1000 Pro plate reader.

EC50: < 100 nM
Structure (SMILES): CCCCC1CN(Cc2ccc(SC)cc2)c2cc(SC)c(O/C=C(\F)C(=O)O)cc2S(=O)(=O)N1C (stereo not shown) [Example 17]
